Reference: US12441691B2 (Cytokinetics, Inc., priority 2020, dated 2025)

System: rabbit skeletal myofibrils (fast skeletal myofibrils)
Assay: Activation of fast skeletal myofibrils (PUMA assay, AC1.4)
Type: biochemical
Settings: calcium at pCa25, AC1.4 = concentration at which the compound increased the enzymatic activity
Summary of the method: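 In 12 mM PIPES pH 6.8 with 2 mM MgCl2 and 1 mM DTT, Triton-washed rabbit skeletal myofibrils were run at the pCa25 calcium level. Myosin-made ADP was recycled through a PK/LDH coupled system; NADH loss read at 340 nm.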

## CC[C@H](C)[C@H]1C(=O)Nc2ccccc2CN1C(=O)CCN1CCC[C@H]1C(N)=O [Compound 186, (S)-1-(3-((S)-3-((S)-sec-butyl)-2-oxo-1,2,3,5-tetrahydro-4H-benzo[e][1,4]diazepin-4-yl)-3-oxopropyl)pyrrolidine-2-carboxamide]
  AC1.4: 2.18 µM

## CC[C@H](C)[C@H]1C(=O)Nc2ccccc2CN1C(=O)CCN1CCC[C@@H]1C(N)=O [Compound 187, (R)-1-(3-((S)-3-((S)-sec-butyl)-2-oxo-1,2,3,5-tetrahydro-4H-benzo[e][1,4]diazepin-4-yl)-3-oxopropyl)pyrrolidine-2-carboxamide]
  AC1.4: 1.39 µM

## CC[C@H](C)[C@H]1C(=O)Nc2ccccc2CN1C(=O)[C@H]1CCCN1CCC(N)=O [Compound 188, 3-((R)-2-((S)-3-((S)-sec-butyl)-2-oxo-2,3,4,5-tetrahydro-1H-benzo[e][1,4]diazepine-4-carbonyl)pyrrolidin-1-yl)propanamide]
  AC1.4: 3.46 µM

## CC[C@H](C)[C@H]1C(=O)Nc2ccccc2CN1C(=O)c1cn(C)nn1 [Compound 189, (S)-3-((S)-sec-butyl)-4-(1-methyl-1H-1,2,3-triazole-4-carbonyl)-1,3,4,5-tetrahydro-2H-benzo[e][1,4]diazepin-2-one]
  AC1.4: 0.10 µM

## CC[C@H](C)[C@H]1C(=O)Nc2ccccc2CN1C(=O)c1ccnnc1 [Compound 190, (S)-3-((S)-sec-butyl)-4-(pyridazine-4-carbonyl)-1,3,4,5-tetrahydro-2H-benzo[e][1,4]diazepin-2-one]
  AC1.4: 0.54 µM

## CC[C@H](C)[C@H]1C(=O)Nc2ccccc2CN1C(=O)c1cncnc1 [Compound 191, (S)-3-((S)-sec-butyl)-4-(pyrimidine-5-carbonyl)-1,3,4,5-tetrahydro-2H-benzo[e][1,4]diazepin-2-one]
  AC1.4: 0.19 µM

## CC[C@H](C)[C@H]1C(=O)Nc2ccccc2CN1C(=O)c1cccnn1 [Compound 192, (S)-3-((S)-sec-butyl)-4-(pyridazine-3-carbonyl)-1,3,4,5-tetrahydro-2H-benzo[e][1,4]diazepin-2-one]
  AC1.4: 0.19 µM

## CC[C@H](C)[C@H]1C(=O)Nc2ccccc2CN1C(=O)[C@@H]1CC(=O)N(C)C1 [Compound 193, (S)-3-((S)-sec-butyl)-4-((R)-1-methyl-5-oxopyrrolidine-3-carbonyl)-1,3,4,5-tetrahydro-2H-benzo[e][1,4]diazepin-2-one]
  AC1.4: 0.72 µM

## CC[C@H](C)[C@H]1C(=O)Nc2ccccc2CN1C(=O)[C@H]1CC(=O)N(C)C1 [Compound 194, (S)-3-((S)-sec-butyl)-4-((S)-1-methyl-5-oxopyrrolidine-3-carbonyl)-1,3,4,5-tetrahydro-2H-benzo[e][1,4]diazepin-2-one]
  AC1.4: 1.52 µM

## CC[C@H](C)[C@H]1C(=O)Nc2ccccc2CN1C(=O)CNC(C)=O [Compound 195, N-(2-((S)-3-((S)-sec-butyl)-2-oxo-1,2,3,5-tetrahydro-4H-benzo[e][1,4]diazepin-4-yl)-2-oxoethyl)acetamide]
  AC1.4: 1.84 µM

## CC[C@H](C)[C@H]1C(=O)Nc2ccccc2CN1C(=O)[C@H](C)NC(C)=O [Compound 196, N-((S)-1-((S)-3-((S)-sec-butyl)-2-oxo-1,2,3,5-tetrahydro-4H-benzo[e][1,4]diazepin-4-yl)-1-oxopropan-2-yl)acetamide]
  AC1.4: 2.09 µM

## CC[C@H](C)[C@H]1C(=O)Nc2ccccc2CN1C(=O)[C@H]1CCCN1C(C)=O [Compound 197, (S)-4-(acetyl-D-prolyl)-3-((S)-sec-butyl)-1,3,4,5-tetrahydro-2H-benzo[e][1,4]diazepin-2-one]
  AC1.4: 1.76 µM

## CC[C@H](C)[C@H]1C(=O)Nc2ccccc2CN1C(=O)[C@@H](C)NC(C)=O [Compound 198, N-((R)-1-((S)-3-((S)-sec-butyl)-2-oxo-1,2,3,5-tetrahydro-4H-benzo[e][1,4]diazepin-4-yl)-1-oxopropan-2-yl)acetamide]
  AC1.4: 1.66 µM

## CC[C@H](C)[C@H]1C(=O)Nc2ccccc2CN1C(=O)CC(C)O (stereo partly drawn) [Compound 199, (3S)-3-((S)-sec-butyl)-4-(3-hydroxybutanoyl)-1,3,4,5-tetrahydro-2H-benzo[e][1,4]diazepin-2-one]
  AC1.4: 0.94 µM

## C[C@@H](OCc1ccccc1)[C@H]1C(=O)Nc2ccccc2CN1C(=O)c1cnn(C)c1 [Compound 200, (S)-3-((R)-1-(benzyloxy)ethyl)-4-(1-methyl-1H-pyrazole-4-carbonyl)-1,3,4,5-tetrahydro-2H-benzo[e][1,4]diazepin-2-one]
  AC1.4: 4.22 µM

## CC[C@H](C)[C@H]1C(=O)Nc2ccccc2CN1C(=O)COc1ccccc1C(N)=O [Compound 201, 2-(2-((S)-3-((S)-sec-butyl)-2-oxo-1,2,3,5-tetrahydro-4H-benzo[e][1,4]diazepin-4-yl)-2-oxoethoxy)benzamide]
  AC1.4: 0.05 µM

## CC[C@H](C)[C@H]1C(=O)Nc2ccccc2CN1C(=O)Nc1ccc(NC(C)=O)nc1 [Compound 202, (S)-N-(6-acetamidopyridin-3-yl)-3-((S)-sec-butyl)-2-oxo-1,2,3,5-tetrahydro-4H-benzo[e][1,4]diazepine-4-carboxamide]
  AC1.4: 0.17 µM

## CC[C@H](C)[C@H]1C(=O)Nc2ccccc2CN1C(=O)NCCO [Compound 203, (S)-3-((S)-sec-butyl)-N-(2-hydroxyethyl)-2-oxo-1,2,3,5-tetrahydro-4H-benzo[e][1,4]diazepine-4-carboxamide]
  AC1.4: 1.75 µM

## CC[C@H](C)[C@H]1C(=O)Nc2ccccc2CN1C(=O)NCC(N)=O [Compound 204, (S)-N-(2-amino-2-oxoethyl)-3-((S)-sec-butyl)-2-oxo-1,2,3,5-tetrahydro-4H-benzo[e][1,4]diazepine-4-carboxamide]
  AC1.4: 3.66 µM

## CC[C@H](C)[C@H]1C(=O)Nc2ccccc2CN1C(=O)NCCC(N)=O [Compound 205, (S)-N-(3-amino-3-oxopropyl)-3-((S)-sec-butyl)-2-oxo-1,2,3,5-tetrahydro-4H-benzo[e][1,4]diazepine-4-carboxamide]
  AC1.4: 1.58 µM

## CC[C@H](C)[C@H]1C(=O)Nc2ccccc2CN1C(=O)NCC(=O)NC [Compound 206, (S)-3-((S)-sec-butyl)-N-(2-(methylamino)-2-oxoethyl)-2-oxo-1,2,3,5-tetrahydro-4H-benzo[e][1,4]diazepine-4-carboxamide]
  AC1.4: 4.98 µM

## CC[C@H](C)[C@H]1C(=O)Nc2ccccc2CN1C(=O)NC[C@H](O)CO [Compound 207, (S)-3-((S)-sec-butyl)-N-((S)-2,3-dihydroxypropyl)-2-oxo-1,2,3,5-tetrahydro-4H-benzo[e][1,4]diazepine-4-carboxamide]
  AC1.4: 3.62 µM

## CC[C@H](C)[C@H]1C(=O)Nc2ccccc2CN1C(=O)NC[C@@H](O)CO [Compound 208, (S)-3-((S)-sec-butyl)-N-((R)-2,3-dihydroxypropyl)-2-oxo-1,2,3,5-tetrahydro-4H-benzo[e][1,4]diazepine-4-carboxamide]
  AC1.4: 2.70 µM

## CC[C@H](C)[C@H]1C(=O)Nc2ccccc2CN1C(=O)N[C@@H]1CCNC1=O [Compound 209, (S)-3-((S)-sec-butyl)-2-oxo-N-((R)-2-oxopyrrolidin-3-yl)-1,2,3,5-tetrahydro-4H-benzo[e][1,4]diazepine-4-carboxamide]
  AC1.4: 4.17 µM

## CC[C@H](C)[C@H]1C(=O)Nc2ccccc2CN1C(=O)N[C@H]1CCNC1=O [Compound 210, (S)-3-((S)-sec-butyl)-2-oxo-N-((S)-2-oxopyrrolidin-3-yl)-1,2,3,5-tetrahydro-4H-benzo[e][1,4]diazepine-4-carboxamide]
  AC1.4: 4.25 µM

## CC[C@H](C)[C@H]1C(=O)Nc2ccccc2CN1C(=O)NCCNC(C)=O [Compound 211, (S)-N-(2-acetamidoethyl)-3-((S)-sec-butyl)-2-oxo-1,2,3,5-tetrahydro-4H-benzo[e][1,4]diazepine-4-carboxamide]
  AC1.4: 2.92 µM

## CC[C@H](C)[C@H]1C(=O)Nc2ccccc2CN1C(=O)NCCNC(N)=O [Compound 212, (S)-3-((S)-sec-butyl)-2-oxo-N-(2-ureidoethyl)-1,2,3,5-tetrahydro-4H-benzo[e][1,4]diazepine-4-carboxamide]
  AC1.4: 1.27 µM

## CC[C@H](C)[C@H]1C(=O)Nc2ccccc2CN1C(=O)NCC[S+](C)[O-] (stereo partly drawn) [Compound 213, (3S)-3-((S)-sec-butyl)-N-(2-(methylsulfinyl)ethyl)-2-oxo-1,2,3,5-tetrahydro-4H-benzo[e][1,4]diazepine-4-carboxamide]
  AC1.4: 4.04 µM

## CC[C@H](C)[C@H]1C(=O)Nc2ccccc2CN1C(=O)NCc1cncn1C [Compound 214, (S)-3-((S)-sec-butyl)-N-((1-methyl-1H-imidazol-5-yl)methyl)-2-oxo-1,2,3,5-tetrahydro-4H-benzo[e][1,4]diazepine-4-carboxamide]
  AC1.4: 1.72 µM

## CC[C@H](C)[C@H]1C(=O)Nc2ccccc2CN1C(=O)NC[C@H]1CCC(=O)N1 [Compound 215, (S)-3-((S)-sec-butyl)-2-oxo-N-(((R)-5-oxopyrrolidin-2-yl)methyl)-1,2,3,5-tetrahydro-4H-benzo[e][1,4]diazepine-4-carboxamide]
  AC1.4: 4.65 µM

## CC[C@H](C)[C@H]1C(=O)Nc2ccccc2CN1C(=O)N[C@H]1CCCNC1=O [Compound 216, (S)-3-((S)-sec-butyl)-2-oxo-N-((S)-2-oxopiperidin-3-yl)-1,2,3,5-tetrahydro-4H-benzo[e][1,4]diazepine-4-carboxamide]
  AC1.4: 2.64 µM

## CC[C@H](C)[C@H]1C(=O)Nc2ccccc2CN1C(=O)N[C@@H]1CCCNC1=O [Compound 217, (S)-3-((S)-sec-butyl)-2-oxo-N-((R)-2-oxopiperidin-3-yl)-1,2,3,5-tetrahydro-4H-benzo[e][1,4]diazepine-4-carboxamide]
  AC1.4: 2.45 µM

## CC[C@H](C)[C@H]1C(=O)Nc2ccccc2CN1C(=O)N[C@@H]1CCC(=O)NC1 [Compound 218, (S)-3-((S)-sec-butyl)-2-oxo-N-((R)-6-oxopiperidin-3-yl)-1,2,3,5-tetrahydro-4H-benzo[e][1,4]diazepine-4-carboxamide]
  AC1.4: 0.88 µM
